What was measured:
Assay type in all cases: in vivo
[1] = tested on: barnyardgrass (Echinochloa crus-galli); test: Test A preemergence soil spray, visual injury rating 0-100; conditions: 10 days, 0 = no effect, 100 = complete control
In short: (§1)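 Plants were grown in a loam soil-sand blend and treated with test chemical in a non-phytotoxic solvent mixture containing surfactant, either sprayed on soil preemergence or applied postemergence to 2-10 cm plants. After 10 days in a greenhouse, injury was scored visually against untreated controls, 0 meaning no effect and 100 complete control.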

[2] = tested on: blackgrass (Alopecurus myosuroides); test: as above; conditions: 10 days, 0 = no effect, 100 = complete control
In short: as §1

[3] = tested on: corn (Zea mays); test: as above; conditions: 10 days, 0 = no effect, 100 = complete control
In short: as §1

[4] = tested on: green foxtail (Setaria viridis); test: as above; conditions: 10 days, 0 = no effect, 100 = complete control
In short: as §1

[5] = tested on: kochia (Bassia scoparia); test: as above; conditions: 10 days, 0 = no effect, 100 = complete control
In short: as §1

[6] = tested on: oat, wild (wild oat, Avena fatua); test: as above; conditions: 10 days, 0 = no effect, 100 = complete control
In short: as §1

[7] = tested on: palmer (palmer amaranth, palmer pigweed, Amaranthus palmeri); test: as above; conditions: 10 days, 0 = no effect, 100 = complete control
In short: as §1

[8] = tested on: ragweed (common ragweed, Ambrosia artemisiifolia); test: as above; conditions: 10 days, 0 = no effect, 100 = complete control
In short: as §1

[9] = tested on: soybean (Glycine max); test: as above; conditions: 10 days, 0 = no effect, 100 = complete control
In short: as §1

[10] = tested on: wheat (Triticum aestivum); test: as above; conditions: 10 days, 0 = no effect, 100 = complete control
In short: as §1

[11] = tested on: barnyardgrass (Echinochloa crus-galli); test: Test A postemergence application, visual injury rating 0-100; conditions: 10 days
In short: as §1

[12] = tested on: blackgrass (Alopecurus myosuroides); test: as above; conditions: 10 days
In short: as §1

[13] = tested on: corn (Zea mays); test: as above; conditions: 10 days
In short: as §1

[14] = tested on: galium (catchweed bedstraw, Galium aparine); test: as above; conditions: 10 days
In short: as §1

[15] = tested on: green foxtail (Setaria viridis); test: as above; conditions: 10 days
In short: as §1

[16] = tested on: horseweed (Erigeron canadensis); test: as above; conditions: 10 days
In short: as §1

[17] = tested on: kochia (Bassia scoparia); test: as above; conditions: 10 days
In short: as §1

[18] = tested on: oat, wild (wild oat, Avena fatua); test: as above; conditions: 10 days
In short: as §1

[19] = tested on: palmer (palmer amaranth, palmer pigweed, Amaranthus palmeri); test: as above; conditions: 10 days
In short: as §1

[20] = tested on: ragweed (common ragweed, Ambrosia artemisiifolia); test: as above; conditions: 10 days
In short: as §1

[21] = tested on: ryegrass, Italian (italian ryegrass, Lolium multiflorum); test: as above; conditions: 10 days
In short: as §1

[22] = tested on: soybean (Glycine max); test: as above; conditions: 10 days
In short: as §1

[23] = tested on: wheat (Triticum aestivum); test: as above; conditions: 10 days
In short: as §1

[24] = tested on: barnyardgrass (Echinochloa crusgalli); test: Test B flooded paddy test, visual plant response rating 0-100; conditions: 250 g ai/ha, Flood, applied to paddy water, evaluated after 13 days
In short: (§2)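 Each species was raised to two leaves before flooding to a 3 cm depth and dosing the water with compound. Injury was assessed by eye after 13 days under greenhouse conditions.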

[25] = tested on: ducksalad (Heteranthera limosa); test: as above; conditions: 250 g ai/ha, Flood, applied to paddy water, evaluated after 13 days
In short: as §2

[26] = tested on: rice (Oryza sativa); test: as above; conditions: 250 g ai/ha, Flood, applied to paddy water, evaluated after 13 days
In short: as §2

[27] = tested on: sedge, umbrella (small-flower umbrella sedge, Cyperus difformis); test: as above; conditions: 250 g ai/ha, Flood, applied to paddy water, evaluated after 13 days
In short: as §2

[28] = 31 g ai/ha, postemergence, 0 = no effect, 100 = complete control
[29] = Postemergence, 125 g ai/ha, 0 is no effect, 100 is complete control

## CC1(C(=O)NC2CCC(C(=O)O)C2)CN(c2cc(F)cc(Cl)c2)C(=O)O1 (centres unmarked) [Compound 7]
[1]; 31 g ai/ha
  Barnyardgrass plant response rating (0-100): 0
[1]; 125 g ai/ha
  Barnyardgrass plant response rating (0 to 100 scale): 90
[2]; 31 g ai/ha
  Blackgrass plant response rating (0-100): 20
[2]; 125 g ai/ha
  Blackgrass plant response rating (0 to 100 scale): 70
[3]; 31 g ai/ha
  Corn plant response rating (0-100): 0
[3]; 125 g ai/ha
  Corn plant response rating (0 to 100 scale): 80
[4]; 31 g ai/ha
  Foxtail, Green plant response rating (0-100): 20
[4]; 125 g ai/ha
  Foxtail, Green plant response rating (0 to 100 scale): 100
[5]; 31 g ai/ha
  Kochia plant response rating (0-100): 0
[5]; 125 g ai/ha
  Kochia plant response rating (0 to 100 scale): 80
[6]; 31 g ai/ha
  Oat, Wild plant response rating (0-100): 20
[6]; 125 g ai/ha
  Oat, Wild plant response rating (0 to 100 scale): 70
[7]; 31 g ai/ha
  Amaranth, Palmer plant response rating (0-100): 0
[7]; 125 g ai/ha
  Amaranth, Palmer plant response rating (0 to 100 scale): 90
[8]; 31 g ai/ha
  Ragweed plant response rating (0-100): 0
[8]; 125 g ai/ha
  Ragweed plant response rating (0 to 100 scale): 0
[9]; 31 g ai/ha
  Soybean plant response rating (0-100): 20
[9]; 125 g ai/ha
  Soybean plant response rating (0 to 100 scale): 60
[10]; 31 g ai/ha
  Wheat plant response rating (0-100): 90
[10]; 125 g ai/ha
  Wheat plant response rating (0 to 100 scale): 90
[11]; [28]
  Barnyardgrass plant response rating (0-100): 100
[11]; [29]
  Barnyardgrass plant response rating (0 to 100 scale): 100
[12]; [28]
  Blackgrass plant response rating (0-100): 60
[12]; [29]
  Blackgrass plant response rating (0 to 100 scale): 70
[13]; [28]
  Corn plant response rating (0-100): 90
[13]; [29]
  Corn plant response rating (0 to 100 scale): 100
[14]; [28]
  Galium plant response rating (0-100): 80
[14]; [29]
  Galium plant response rating (0 to 100 scale): 80
[15]; [28]
  Foxtail, Green plant response rating (0-100): 50
[15]; [29]
  Foxtail, Green plant response rating (0 to 100 scale): 90
[16]; [28]
  Horseweed plant response rating (0-100): 0
[16]; [29]
  Horseweed plant response rating (0 to 100 scale): 40
[17]; [28]
  Kochia plant response rating (0-100): 70
[17]; [29]
  Kochia plant response rating (0 to 100 scale): 80
[18]; [28]
  Oat, Wild plant response rating (0-100): 90
[18]; [29]
  Oat, Wild plant response rating (0 to 100 scale): 100
[19]; [28]
  Amaranth, Palmer plant response rating (0-100): 50
[19]; [29]
  Amaranth, Palmer / Pigweed, Palmer plant response rating (0 to 100 scale): 80
[20]; [28]
  Ragweed plant response rating (0-100): 0
[20]; [29]
  Ragweed plant response rating (0 to 100 scale): 20
[21]; [28]
  Ryegrass, Italian plant response rating (0-100): 80
[21]; [29]
  Ryegrass, Italian plant response rating (0 to 100 scale): 90
[22]; [28]
  Soybean plant response rating (0-100): 50
[22]; [29]
  Soybean plant response rating (0 to 100 scale): 60
[23]; [28]
  Wheat plant response rating (0-100): 90
[23]; [29]
  Wheat plant response rating (0 to 100 scale): 90
[24]
  Plant response rating, Barnyardgrass (0 to 100 scale, 0 is no effect and 100 is complete control): 60
[25]
  Plant response rating, Ducksalad (0 to 100 scale, 0 is no effect and 100 is complete control): 60
[26]
  Plant response rating, Rice (0 to 100 scale, 0 is no effect and 100 is complete control): 25
[27]
  Plant response rating, Sedge, Umbrella (0 to 100 scale, 0 is no effect and 100 is complete control): 90
